Results reported in paper PMC6278313.
Read-outs that look alike come from different tables or passages of the source.

Tests used:
[1] = Chart 1; cited from earlier work
[2] = biological target: DAT (dopamine transporter) (Homo sapiens, UniProt Q01959); experiment: NIMH-PDSP radioligand binding screen, DAT; conditions: read-out: inhibition of radioligand binding at DAT
benzodiazepine (BzP) = experiment: NIMH-PDSP radioligand binding screen, benzodiazepine site; design: species or system rat; conditions: 10 μM
COX-1 [3] = biological target: T1, COX-1 (Macaca mulatta, UniProt F6S984); experiment: COX-1 inhibition, monkey whole blood (Thromboxane B2 EIA)
T1 sequence (F6S984 25-599): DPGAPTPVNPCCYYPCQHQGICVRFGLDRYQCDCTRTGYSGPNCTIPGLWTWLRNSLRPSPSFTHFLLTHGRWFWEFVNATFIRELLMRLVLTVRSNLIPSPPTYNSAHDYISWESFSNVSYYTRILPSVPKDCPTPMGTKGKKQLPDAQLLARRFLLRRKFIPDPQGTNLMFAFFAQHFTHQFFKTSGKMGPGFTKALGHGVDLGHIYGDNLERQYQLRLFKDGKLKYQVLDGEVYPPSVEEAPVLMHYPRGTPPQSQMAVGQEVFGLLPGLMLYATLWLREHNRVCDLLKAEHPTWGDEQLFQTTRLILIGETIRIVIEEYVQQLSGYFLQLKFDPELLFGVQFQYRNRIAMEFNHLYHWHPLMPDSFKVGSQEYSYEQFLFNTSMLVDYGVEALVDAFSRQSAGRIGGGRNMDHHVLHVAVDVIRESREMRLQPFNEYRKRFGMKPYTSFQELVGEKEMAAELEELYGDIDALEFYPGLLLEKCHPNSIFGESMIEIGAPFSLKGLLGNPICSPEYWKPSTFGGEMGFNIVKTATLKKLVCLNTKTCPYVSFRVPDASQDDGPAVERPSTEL

[4] = tested on: all tested receptors, transporters, and binding sites; experiment: NIMH-PDSP radioligand binding screen, whole panel; conditions: 10 μM; except the sites named for 17 and 27
human COX-2 = conditions: cited from earlier work
COX-1 [5] = biological target: T2, COX-1 (Homo sapiens, UniProt P23219); design: endogenous in cells; host or cells: fresh human whole blood; conditions: footnote c; SE <15%; read-out: IC50 COX-1 Human WB (literature); cited from earlier work
COX-1 [6] = biological target: T2, COX-1; experiment: COX-1 inhibition, human whole blood (Thromboxane B2 EIA)
5-HT1B = 5-HT1B (Homo sapiens, UniProt P28222); experiment: NIMH-PDSP radioligand binding screen, 5-HT1B
COX-2 [7] = biological target: T3, COX-2 (Macaca mulatta, UniProt F7BWZ9); experiment: COX-2 inhibition, monkey whole blood (Prostaglandin E2 EIA)
T3 sequence (F7BWZ9 18-604): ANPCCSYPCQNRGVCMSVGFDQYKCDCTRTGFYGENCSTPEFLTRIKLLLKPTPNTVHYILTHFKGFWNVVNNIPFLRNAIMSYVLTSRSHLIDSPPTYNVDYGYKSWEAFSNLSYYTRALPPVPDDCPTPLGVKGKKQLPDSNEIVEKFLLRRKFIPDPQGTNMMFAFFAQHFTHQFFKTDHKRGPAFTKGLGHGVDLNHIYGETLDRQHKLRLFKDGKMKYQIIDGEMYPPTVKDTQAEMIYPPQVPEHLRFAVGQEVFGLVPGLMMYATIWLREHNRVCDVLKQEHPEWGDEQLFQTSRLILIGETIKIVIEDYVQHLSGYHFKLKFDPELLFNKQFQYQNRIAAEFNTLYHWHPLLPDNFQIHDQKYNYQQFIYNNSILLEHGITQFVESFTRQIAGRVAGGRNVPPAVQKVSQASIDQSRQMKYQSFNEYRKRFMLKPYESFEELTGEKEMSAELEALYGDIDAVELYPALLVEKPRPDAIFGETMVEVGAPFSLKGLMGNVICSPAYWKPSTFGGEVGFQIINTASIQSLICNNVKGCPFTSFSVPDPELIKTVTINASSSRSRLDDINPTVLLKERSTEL

COX-2 [8] = conditions: Chart 1; PET in vivo; ref literature cited in the text (18-30); cited from earlier work
COX-2 [9] = biological target: COX-2; design: method as in literature cited in the text (18-30); conditions: Chart 1; ref literature cited in the text (18-30); cited from earlier work

T2 sequence (P23219 24-599): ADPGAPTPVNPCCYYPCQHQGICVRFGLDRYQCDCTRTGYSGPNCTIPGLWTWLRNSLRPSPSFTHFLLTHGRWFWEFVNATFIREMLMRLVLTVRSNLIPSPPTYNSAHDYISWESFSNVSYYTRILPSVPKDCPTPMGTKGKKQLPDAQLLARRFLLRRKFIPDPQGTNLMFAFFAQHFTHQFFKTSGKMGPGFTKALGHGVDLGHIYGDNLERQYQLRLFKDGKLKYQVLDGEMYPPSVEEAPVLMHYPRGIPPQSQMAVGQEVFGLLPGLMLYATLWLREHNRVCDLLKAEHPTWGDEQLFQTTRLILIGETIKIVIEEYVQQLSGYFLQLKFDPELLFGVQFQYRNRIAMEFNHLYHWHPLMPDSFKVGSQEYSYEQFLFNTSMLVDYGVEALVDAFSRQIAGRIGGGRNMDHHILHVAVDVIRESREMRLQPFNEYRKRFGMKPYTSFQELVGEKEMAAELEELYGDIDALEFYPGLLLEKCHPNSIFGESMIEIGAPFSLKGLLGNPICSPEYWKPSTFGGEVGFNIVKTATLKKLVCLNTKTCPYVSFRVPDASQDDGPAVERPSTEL
5-HT1B, sequence (P28222 whole entry): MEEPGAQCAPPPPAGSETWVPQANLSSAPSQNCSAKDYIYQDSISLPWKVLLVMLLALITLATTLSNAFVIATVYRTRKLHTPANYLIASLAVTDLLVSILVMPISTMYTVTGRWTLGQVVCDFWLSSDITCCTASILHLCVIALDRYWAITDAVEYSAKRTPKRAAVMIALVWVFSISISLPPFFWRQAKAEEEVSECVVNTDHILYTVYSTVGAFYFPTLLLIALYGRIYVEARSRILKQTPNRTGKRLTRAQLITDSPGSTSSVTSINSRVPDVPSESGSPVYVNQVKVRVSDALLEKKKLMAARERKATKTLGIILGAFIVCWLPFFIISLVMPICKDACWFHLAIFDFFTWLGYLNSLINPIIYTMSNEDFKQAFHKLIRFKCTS
DAT (dopamine transporter), sequence (Q01959 whole entry, species assumed): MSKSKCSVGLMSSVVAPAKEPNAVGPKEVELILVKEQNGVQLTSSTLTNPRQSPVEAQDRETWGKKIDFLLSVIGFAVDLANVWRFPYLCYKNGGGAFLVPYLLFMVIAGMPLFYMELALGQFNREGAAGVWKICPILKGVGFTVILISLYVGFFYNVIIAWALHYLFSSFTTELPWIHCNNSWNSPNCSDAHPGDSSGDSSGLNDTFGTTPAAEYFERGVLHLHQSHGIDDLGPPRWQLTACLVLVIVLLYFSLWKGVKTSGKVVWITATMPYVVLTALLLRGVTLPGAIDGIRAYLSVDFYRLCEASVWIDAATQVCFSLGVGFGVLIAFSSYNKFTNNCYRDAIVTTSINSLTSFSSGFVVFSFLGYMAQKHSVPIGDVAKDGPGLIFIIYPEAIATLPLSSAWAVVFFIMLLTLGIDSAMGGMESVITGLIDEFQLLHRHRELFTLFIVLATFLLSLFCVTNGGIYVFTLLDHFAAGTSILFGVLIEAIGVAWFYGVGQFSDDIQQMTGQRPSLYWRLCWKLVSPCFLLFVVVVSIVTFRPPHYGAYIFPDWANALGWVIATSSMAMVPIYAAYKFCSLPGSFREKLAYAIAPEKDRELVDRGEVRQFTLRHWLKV

## CS(=O)(=O)c1ccc(-c2cc(C(F)(F)F)nc(NCc3ccc([18F])cc3)n2)cc1 [[^18F]10, [^18F]pyricoxib]
[1]
  logD: 3.37

## COc1cc(NCc2cccs2)nc(-c2ccc(S(C)(=O)=O)cc2)n1 [Compound 17, 6-Methoxy-2-(4-(methylsulfonyl)phenyl)-N-(thiophen-2-ylmethyl)pyrimidin-4-amine]
[2]
  inhibition at 10 µM: 53.7%
Benzodiazepine (BzP)
  inhibition of radioligand binding at benzodiazepine (BzP): 50.6%
COX-1 [3]
  IC50: > 1000 nM
[4]
  inhibition of radioligand binding at all tested receptors, transporters, and binding sites: less than 50%
Human COX-2; Table 1, human whole blood COX-2, SEM <15%, read-out: HWB IC50
  IC50: […]
Human COX-2; footnote c, SE <15%, read-out: IC50 COX-2 Human WB (literature) (converted)
  IC50: […]
COX-1 [5]
  IC50: > 8800 nM
COX-1 [6]
  IC50: > 1000 nM
5-HT1B
  inhibition at 10 µM: 50%
COX-2 [7]
  IC50: 2.58 ± 0.23 nM
other
  melting point: 139 to 141 °C

## CS(=O)(=O)c1ccc(-c2ccsc2-c2ccc([18F])cc2)cc1 [[^18F]9, [^18F]desbromo-DuP-697]
[1]
  logP: 3.72
COX-2 [8]
  brain entry: Brain penetrant
COX-2 [9]
  Ki: 250 nM
